Test system: anti-equol monoclonal antibody composition
Test: Evaluating cross-reactivity of anti-equol monoclonal antibody composition
Assay type: binding, mouse
Conditions: for Cross-reactivity with S-equol (%): S-equol as 100%; for S-equol concentration calculated from the calibration curve: reacted with the antibody, read from S-equol calibration curve
Experimental: The cross-reactivity rate can be obtained as follows for example. First, a calibration curve is prepared using S-equol. Compounds including S-equol are prepared with concentrations of 1 μM and 10 μM, and reacted with the antibody at each concentration, and the S-equol concentration is calculated from the calibration curve. For example, if 10 μM of daidzein is added and detected at a concentration of 10 μM based on the calibration curve the cross-reactivity is given as 100%, while if it is detected at a concentration of 1 μM the cross-reactivity is given as 10%, and if it is detected at a concentration of 0.1 μM the cross-reactivity is given as 1%. To investigate the cross-reactivity of the resulting antibody composition, reactivity to 9 kinds of compounds including S-equol (S-equol, daidzein, genistein, glycitein, ellagic acid dihydrate, catechin monohydrate, gallic acid, apigenin and DMA) was investigated. First, a calibration curve was prepared using S-equol. The 9 compounds including S-equol were prepared at concentrations of 1 μM and 10 μM, and reacted with the antibody at each concentration, and cross-reactivity was calculated from the calibration curve.

| Compound | Cross-reactivity with S-equol (%) (compound at 1 μM) | Cross-reactivity with S-equol (%) (compound at 10 μM) | S-equol concentration calculated from the calibration curve (compound prepared at 1 μM) | S-equol concentration calculated from the calibration curve (compound prepared at 10 μM) |
| --- | --- | --- | --- | --- |
| O=c1cc(-c2ccc(O)cc2)oc2cc(O)cc(O)c12 [Apigenin, apigenin] | 0.00 | 0.00 | 0.00 | 0.00 |
| O=c1c(-c2ccc(O)cc2)coc2cc(O)ccc12 [Daidzein, daidzein] | 0.00 | 0.00 | 0.00 | 0.00 |
| O=c1oc2c(O)c(O)cc3c(=O)oc4c(O)c(O)cc1c4c23 [Ellagic acid dihydrate, ellagic acid dihydrate] | 0.00 | 0.00 | 0.00 | 0.00 |
| O=C(O)c1cc(O)c(O)c(O)c1 [Gallic acid, gallic acid] | 0.00 | 0.74 | 0.00 | 0.08 |
| O=c1c(-c2ccc(O)cc2)coc2cc(O)cc(O)c12 [Genistein, genistein] | 0.00 | 0.00 | 0.00 | 0.00 |
| COc1cc2c(=O)c(-c3ccc(O)cc3)coc2cc1O [Glycitein, glycitein] | 0.00 | 0.00 | 0.00 | 0.00 |
| Oc1ccc([C@@H]2COc3cc(O)ccc3C2)cc1 [R-Equol, R-equol] | 89.55 | 109.59 | 1.20 | 11.88 |
| C[C@@H](C(=O)c1ccc(O)cc1O)c1ccc(O)cc1 [R—O-DMA, R—O-desmethylangolensin] | 0.00 | 0.00 | 0.00 | 0.00 |
| Oc1ccc([C@H]2COc3cc(O)ccc3C2)cc1 [S-Equol, S-equol] | 100.00 | 100.00 | 1.34 | 10.84 |
| (+)-Catechin hydrate | 0.00 | 0.09 | 0.00 | 0.01 |

Reference: patent publication US10538580B2, “Anti-equol antibody composition and use therefor” (HEALTHCARE SYSTEMS CO., LTD., priority 2016, dated 2020)
